Data: ChEMBL document CHEMBL1151215, “Isotsaokoin, an antifungal agent from Amomum tsao-ko” (2004)
The source made the active and inactive calls. The rule behind the calls is not given here.

What was measured:
[1] = tested on: Trichophyton mentagrophytes; assay: Antifungal activity against Trichophyton mentagrophytes KCTC 6085 at 60 ug/disk after 4 days by paper-disk agar diffusion assay; type: functional, organism-based
[2] = tested on: Trichophyton mentagrophytes; assay: Antifungal activity against Trichophyton mentagrophytes KCTC 6085 at 20 ug/disk after 4 days by paper-disk agar diffusion assay; type: functional; settings: KCTC 6085, 96 h, read-out: IZ
[3] = tested on: Trichophyton mentagrophytes; assay: Antifungal activity against Trichophyton mentagrophytes KCTC 6085 at 40 ug/disk after 4 days by paper-disk agar diffusion assay; type: functional; settings: KCTC 6085, 96 h, read-out: IZ

SMILES	Activity [1]	zone of inhibition at 20 µg/disc [2]	zone of inhibition at 40 µg/disc [3]
OCC1=CC[C@@H](O)[C@H]2CCC[C@@H]12	inactive	–	–
C[C@@H]1[C@H](O)[C@@H](C)/C=C/C=C/C=C/C=C/C=C/C=C/C=C/[C@H](O[C@@H]2O[C@H](C)[C@@H](O)[C@H](N)[C@@H]2O)C[C@@H]2O[C@](O)(C[C@@H](O)C[C@@H](O)[C@H](O)CC[C@@H](O)C[C@@H](O)CC(=O)O[C@H]1C)C[C@H](O)[C@H]2C(=O)O [AMPHOTERICIN B]	–	2.5 mm	3 mm
O=CC1=CC[C@@H](O)[C@@H]2CCC[C@H]12 (relative stereo) [ISOTSAOKOIN]	–	1.5 mm	2 mm
